Several values for one entry are separate records, joined by “and”; a condition that tells them apart may be missing. Equal entries are not always repeated.
How the values were obtained:
Format in all cases: in vivo
[1] = tested on: blood glucose; assay: OGTT, single administration in C57BL/6 mice (glimepiride combination)
Procedure: In order to examine synergistic effects of a complex of a compound prepared in Preparation Example 1 of the present invention and an insulin secretagogue sulfonyl urea-series drug, the percent inhibitions of single administration OGTT blood glucose change curves by individual materials and complexes were evaluated. 8-week-old male experimental mice (C57BL/6 mice) were used and fasted for 16 to 17 hours prior to the experiments. Blood was collected from caudal veins of mice in the morning on the day of the experiment and a blood glucose level was measured with an ACCU-CHEK ACTIVE Blood Glucose Meter (Roche Diagnostics). The mixed composition of the present invention was given orally 30 min prior to glucose administration (−30 min), followed by oral administration of a glucose solution (2 g/kg/10 mL) after 30 min (0 min). Blood collection was made at designated time points—just prior to drug administration, just prior to glucose administration, and 15, 30, 60 and 90 min after glucose administration. […] In order to evaluate synergistic or additive effects by complex in the present evaluation, 0.5% methylcellulose (MC) was used to prepare a suspension with a dose of a compound prepared in Preparation Example 1 at 0.1 mg/kg, and 0.5% MC was also used to prepare a suspension with a composition of an insulin secretagogue sulfonyl urea-series drug and glimepiride at 0.02 mg/kg and 0.32 mg/kg such that a complex ratio may be included at a clinical dose expected in a fixed state of a compound prepared in Preparation Example 1. […] A complex thereof was prepared at 10 mL per kg by weighing individual compounds and mixing the compounds with each composition ((a compound prepared in Preparation Example 10.1 mg+glimepiride 0.02 mg)/10 mL and (a compound prepared in Preparation Example 10.1 mg+glimepiride 0.32 mg)/10 mL)).

[2] = tested on: blood glucose; assay: Oral sucrose tolerance test, single administration in C57BL/6 mice (voglibose combination)
Procedure: In order to examine synergistic effects of a compound prepared in Preparation Example 1 of the present invention and an α-glucosidase inhibitor-series drug by complexing drugs, the percent inhibition in a single administration oral sucrose tolerance test blood glucose change curve by individual materials and a complex thereof was evaluated. 8-week-old male experimental mice (C57BL/6 mice) were used as experimental subjects. The mice were fasted for 16 to 17 hours prior to the experiments. Blood was collected from caudal veins of mice in the morning on the day of the experiment and a blood glucose level was measured with an ACCU-CHEK ACTIVE Blood Glucose Meter (Roche Diagnostics). The pharmaceutically mixed composition of the present invention was given orally 30 min prior to sucrose administration (−30 min), followed by oral administration of a […] (2 g/kg/10 mL) after 30 min (0 min). Blood collection was made at designated time points—just prior to drug administration, just prior to sucrose administration, and 15, 30, 60, 90, and 120 min after sucrose administration. […] In order to evaluate synergistic or additive effects by complexes in the present evaluation, 0.5% methylcellulose (MC) was used to prepare a suspension with a compound prepared in Preparation Example 1 at a dose of 0.3 mg/kg, and 0.5% MC was also used to prepare a suspension with a composition of an α-glucosidase inhibitor and voglibose at 0.009 mg/kg and 0.054 mg/kg (complex ratio 1:0.031:0.18) such that a complex ratio may be included at a clinical dose expected in a state where a dose of a compound prepared in Preparation Example 1 was fixed.

[3] = tested on: blood glucose; assay: Blood glucose after 7-day administration in db/db diabetic mice
Procedure: In order to examine synergistic effects of a complex by a compound prepared in Preparation Example 1 of the present invention and an insulin sensitizer PPARγ agonist, the percent inhibition of blood glucose by repeated administration of the complex to db/db mice as diabetic mice was evaluated. Eight-week-old male mice (db/db mice) were used as experimental subjects. […] The dose of a compound prepared in Preparation Example 1 with respect to rosiglitazone at a fixed dose was selected at 1 mg/kg and 40 mg/kg (complex ratio 1:0.01˜1:0.4) in consideration of a complex ratio in an expected clinical dose. […] 0.5% methylcellulose (MC) was at each drug concentration to prepare suspensions. Each compound was weighed, and 0.5% methylcellulose was used to prepare 5 mL/kg of suspensions with each composition of (1 mg of the compound prepared in Preparation Example 1+0.4 mg of rosiglitazone)/5 mL and (40 mg of the compound prepared in Preparation Example 1+0.4 mg of rosiglitazone)/5 mL.
The percent inhibition value with respect to blood glucose was calculated by comparison with a control group.

[4] = tested on: blood glucose; assay: Oral glucose tolerance test (OGTT), single administration in normal mice; ED30 and isobologram; details: C57BL/6 mice; for ED30 ± (SEM): dose giving 30% inhibition of OGTT blood glucose AUC, single agent
Procedure: (§1) Laboratory mice (C57BL/6 mice) as experimental subjects were fasted for 16 to 17 hours prior to the experiments. Blood was collected from caudal veins of mice in the morning on the day of the experiment and a blood glucose level was measured with an ACCU-CHEK ACTIVE Blood Glucose Meter (Roche Diagnostics). The pharmaceutical composition of the present invention was given orally 30 min prior to glucose administration (−30 min), followed by oral administration of a glucose solution (2 g/kg/10 mL) after 30 min (0 min). Blood collection was made at designated time points—just prior to drug administration, just prior to glucose administration, and 15, 30, 60 and 90 min after glucose administration.
Effects of single administration of the individual agents on a blood glucose change curve in an oral glucose tolerance test (OGTT) were identified by percent inhibition (%) and ED30. The percent inhibition values for each treatment were generated from the area under curve (AUC) data normalized to the non-glucose challenged controls by subtracted blood glucose AUC of non-glucose challenged controls from glucose challenged groups, and comparing the value with that of a control group in which glucose has been administered.
Feasible synergistic effects of a composition at each fixed ratio were analyzed by isobologram (R. J. Tallarida et al, Life Sci. 1989, 45, 947). […] When the result of ED30mix<ED30add is established at a certain fixed ratio, the mixture has synergistic effects. ED30add was calculated from ED30 of each drug. In FIG. 1, fractions of the ED30 values of each material are present on each axis thereof. The ED30 value of the compound prepared in Preparation Example 1 only is 0.2 mg/kg and shown as value 1 in FIG. 1, and the ED30 value of metformin only is 30 mg/kg and shown as value 1 in FIG. 1. Therefore, the line combining the ED30 values of the two individual drugs indicates a simple additivity (ED30add) calculated from glucose tolerance effects at different ratios. Therefore, the points designated as A, B, C, and D in FIG. 1 with respect to each mixture studied indicate fractions of ED30 values (ED30mic) determined by actual experiments performed on a mixtures of the compound prepared in Preparation Example 1 and metformin at ratios of 9:1, 5:1, 1:1, and 1:3. The points A′, B′, C′, and D′ in FIG. 1 indicate fractions of doses (ED30add) corresponding to mixtures of the compound prepared in Preparation Example 1 and metformin at ratios of 9:1, 5:1, 1:1, and 1:3 expected under a simple additivity.
The ratios of doses actually administered to animals in each fraction were calculated by multiplying 0.2 mg/kg and 30 mg/kg which are ED30 values of the compound prepared in Preparation Example 1 and metformin, respectively with a desired ratio. Administrations were performed in the ranges of: 0.045˜0.36 mg/kg of the compound prepared in Preparation Example 1+0.75˜6 mg/kg of metformin at a ratio of 9:1, 0.042˜0.33 mg/kg of the compound prepared in Preparation Example 1+1.25˜10 mg/kg of metformin at a ratio of 5:1, 0.025˜0.2 mg/kg of the compound prepared in Preparation Example 1+[…] of metformin at a ratio of 1:1, 0.0125˜0.2 mg/kg of the compound prepared in Preparation Example 1+5.625˜45 mg/kg of metformin at a ratio of 1:3. When this is applied to a healthy adult (about 70 kg), the dose corresponds to 0.88˜25.2 mg of the compound prepared in Preparation Example 1 and 52.5˜3150 mg of metformin, and includes a daily clinical dose of metformin, which is 500˜2000 mg.

[5] = tested on: blood glucose; assay: OGTT, single administration in diet-induced obesity mice; details: obese mice
Procedure: (§2) In order to examine synergistic effects of a compound prepared in Preparation Example 1 of the present invention and metformin complex by repeated administration, effects of a single administration to obese mice on an OGTT blood glucose change curve and of a 2-week repeated administration on the percent inhibition of blood glucose were evaluated. Diet-induced obesity mice obtained by supplying experimental mice (C57BL/6 mice) with high fat fodder (60 kcal % fat, Research Diets, D12492) for 5 month were used as experimental subjects. 0.5% methylcellulose (MC) was used to prepare a suspension of the compound 1 prepared in Preparation Example 1 with a composition of 0.1 mg/kg and 0.15 mg/kg. 0.5% MC was used to prepare a suspension of metformin with a composition of 7.5 mg/kg and 15 mg/kg. […] of the complex was prepared in doses of (0.1 mg/kg of a compound prepared in Preparation Example 1+15 mg/kg of metformin)/5 mL and (0.15 mg/kg of a compound prepared in Preparation Example 1+7.5 mg/kg of metformin)/5 mL.
as §1, with “Obese” for “Laboratory”, “mice” for “mice (C57BL/6 mice) as experimental subjects”, “experiments, blood” for “experiments. Blood”, “mixed” for “pharmaceutical”, “administration. The percent inhibition value was calculated by calculating an area under curve of each group and comparing the value with that of a control group in which glucose had been administered.” for “administration.”

[6] = tested on: plasma glucose; assay: Plasma glucose after 2-week repeated administration in diet-induced obesity mice; details: obese mice
Procedure: as §2

[7] = tested on: blood glucose; assay: OGTT after 4-week administration in diet-induced obesity mice (rimonabant combination); details: obese mice
Procedure: (§3) In order to examine synergistic effects by repeated administration of a compound prepared in Preparation Example 1 and cannabinoid receptor-1 antagonist, effects of 4-week administration to obese mice on an OGTT blood glucose change curve and on fat mass were evaluated. Diet-induced obesity mice obtained by supplying experimental mice (C57BL/6 mice) with high fat fodder (60 kcal % fat, Research Diets, D12492) for 5 month were used as experimental subjects. 0.5% methylcellulose (MC) was used to prepare a suspension of the compound 1 prepared in Preparation Example 1 with a composition of 0.3 mg/kg which is presumed to be a dose of minimum effective efficacy and 3 mg/kg. 0.5% MC was used to prepare a suspension of rimonabant, a cannabinoid receptor-1 antagonist with a composition of 3 mg/kg. Rimonabant has the same parent nucleus structure as a cannabinoid receptor-1 antagonist, such as Otenabant, Ibinabant, and Surinabant, and 5 mL/kg of the complex thereof was prepared in doses of (0.3 mg of a compound prepared in Preparation Example 1+3 mg of rimonabant)/5 mL and (3 mg of a compound prepared in Preparation Example 1+3 mg/kg of rimonabant)/5 mL. When the mixing ratio is 1:0.1 or less, or 1:1 or more, the dose may exceed a daily clinical dose of rimonabant or poor efficacy may occur. Thus, the mixing ratio was set at […].
Obese mice were fasted for 16 to 17 hours prior to the experiments, blood was collected from caudal veins of mice in the morning on the day of the experiment and a blood glucose level was measured with an ACCU-CHEK ACTIVE Blood Glucose Meter (Roche Diagnostics). The pharmaceutically mixed composition of the present invention was given orally 30 min prior to glucose administration (−30 min), followed by oral administration of a glucose solution (2 g/kg/10 mL) after 30 min (0 min). […] The percent inhibition value was calculated by calculating an area under curve of each group and comparing the value with that of a control group in which glucose had been administered.

[8] = Fat mass (epidydimal + retroperitoneal fat) after 4-week administration in diet-induced obesity mice; details: 4 weeks; for Fat mass: HF-DIO mice (control 3.61 ± 0.20); for % reduction (fat mass): vs HF-DIO control group
Procedure: as §3
Experiments were performed on the experimental subject and experimental drug in the same manner as in Experimental Example 5-1, the fat mass was calculated as a sum of epidydimal fat and retroperitoneal fat, and fat mass 4 weeks after administration was measured.

SMILES: CCC1=C(C)CN(C(=O)NCCc2ccc(S(=O)(=O)NC(=O)N[C@H]3CC[C@H](C)CC3)cc2)C1=O [Glimepiride, glimepiride]
- Percent inhibition (blood glucose AUC, OGTT) ([1]; single oral dose 0.02 mg/kg): −3.69%
- Percent inhibition (blood glucose AUC, OGTT) ([1]; single oral dose 0.32 mg/kg): 10.9%

SMILES: OCC(CO)N[C@H]1C[C@](O)(CO)[C@@H](O)[C@H](O)[C@H]1O [Voglibose, voglibose]
- Percent inhibition (blood glucose AUC, oral sucrose tolerance test) ([2]; single oral dose 0.009 mg/kg): 1%
- Percent inhibition (blood glucose AUC, oral sucrose tolerance test) ([2]; single oral dose 0.054 mg/kg): 53%

SMILES: CN(CCOc1ccc(CC2SC(=O)NC2=O)cc1)c1ccccn1 (stereo not shown) [Rosiglitazone, rosiglitazone, reference compound]
- Percent inhibition (blood glucose vs control) ([3]; 7 days oral 0.4 mg/kg): 10%

SMILES: CN(C)C(=N)N=C(N)N [Metformin, metformin, reference compound]
- ED30 ± (SEM) [4]: 29.6 mg/kg and 30 mg/kg and 29.6 ± 6.68 mg/kg
- Percent inhibition (blood glucose AUC, OGTT) ([4]; single oral dose 10 mg/kg): 7.43%
- Percent inhibition (blood glucose AUC, OGTT) ([4]; single oral dose 30 mg/kg): 29.06%
- Percent inhibition (blood glucose AUC, OGTT) ([4]; single oral dose 100 mg/kg): 54.46%
- Percent inhibition (blood glucose AUC, OGTT) ([5]; single administration 7.5 mg/kg): 7%
- Percent inhibition (blood glucose AUC, OGTT) ([5]; single administration 15 mg/kg): 11%
- Percent inhibition (plasma glucose vs control) ([6]; 2-week repeated administration 7.5 mg/kg): 13%
- Percent inhibition (plasma glucose vs control) ([6]; 2-week repeated administration 15 mg/kg): 14%

SMILES: CC(C)(C)OC[C@@H]1C(=O)NCCN1C(=O)C[C@H](N)Cc1cc(F)c(F)cc1F [(R)-4-[(R)-3-amino-4-(2,4,5-trifluorophenyl)-butanoyl]-3-(t-butoxymethyl)piperazin-2-one]
- ED30 ± (SEM) [4]: 0.20 mg/kg and 0.2 mg/kg and 0.20 ± 0.04 mg/kg
- Percent inhibition (blood glucose AUC, OGTT) ([4]; single oral dose 0.1 mg/kg): 18.5%
- Percent inhibition (blood glucose AUC, OGTT) ([4]; single oral dose 0.3 mg/kg): 38.7%
- Percent inhibition (blood glucose AUC, OGTT) ([4]; single oral dose 1 mg/kg): 54.8%
- Percent inhibition (blood glucose AUC, OGTT) ([5]; single administration 0.1 mg/kg): 2%
- Percent inhibition (blood glucose AUC, OGTT) ([5]; single administration 0.15 mg/kg): 3%
- Percent inhibition (plasma glucose vs control) ([6]; 2-week repeated administration 0.1 mg/kg): 2%
- Percent inhibition (plasma glucose vs control) ([6]; 2-week repeated administration 0.15 mg/kg): 15%
- Percent inhibition (blood glucose vs control) ([3]; 7 days oral 1 mg/kg): 21%
- Percent inhibition (blood glucose vs control) ([3]; 7 days oral 40 mg/kg): 11%
- Percent inhibition (blood glucose AUC, OGTT) ([1]; single oral dose 0.1 mg/kg): 7.7%
- Percent inhibition (blood glucose AUC, oral sucrose tolerance test) ([2]; single oral dose 0.3 mg/kg): 12%
- Percent inhibition (blood glucose AUC, OGTT) ([7]; 4-week administration 0.3 mg/kg): 18.2%
- Percent inhibition (blood glucose AUC, OGTT) ([7]; 4-week administration 3 mg/kg): 35.3%
- Fat mass ([8]; 0.3 mg/kg): 3.67 ± 0.12 g
- % reduction (fat mass) ([8]; 0.3 mg/kg): −1.65%
- Fat mass ([8]; 3 mg/kg): 3.29 ± 0.21 g
- % reduction (fat mass) ([8]; 3 mg/kg): 8.71%

SMILES: Cc1c(C(=O)NN2CCCCC2)nn(-c2ccc(Cl)cc2Cl)c1-c1ccc(Cl)cc1 [Rimonabant, rimonabant, reference compound]
- Percent inhibition (blood glucose AUC, OGTT) ([7]; 4-week administration 3 mg/kg): 1.1%
- Fat mass ([8]; 3 mg/kg): 2.11 ± 0.31 g
- % reduction (fat mass) ([8]; 3 mg/kg): 41.5%

— patent publication US8440669B2, “Pharmaceutical composition for prevention and treatment of diabetes or obesity comprising a compound that inhibits activity of dipeptidyl peptidase-IV, and other antidiabetic or antiobesity agents as active ingredients” (Dong-A Pharmaceutical Co. Ltd., priority 2008, dated 2013)
